Experimental data reported in ChEMBL document CHEMBL1158946, “Sesquiterpenoids from Brachylaena hutchinsii” (1991).
≈ marks a conversion by molar mass, not a printed value.

Assays:
[1] = tested on: Streptococcus mutans; test: Antimicrobial activity against Streptococcus mutans ATCC 25175 after 48 hrs by twofold serial broth dilution method; format: functional; settings: ATCC 25175, 48 h
[2] = tested on: Corynebacterium ammoniagenes; test: Antimicrobial activity against Brevibacterium ammoniagenes ATCC 6872 after 48 hrs by twofold serial broth dilution method; format: functional; settings: ATCC 6872, 48 h

Compound: CC(C)[C@@H]1CCC2(C)C3C(CO)=CC[C@@H]2[C@H]31 [YLANGENOL]
- MIC [1]: 25 mg/L (≈ 0.113 mM)
- MIC [2]: 25 mg/L (≈ 0.113 mM)

Compound: CC(C)[C@@H]1C(=O)CC2(C)C3C(CO)=CC[C@@H]2[C@H]31
- MIC [1]: > 800 mg/L
- MIC [2]: > 800 mg/L

Compound: CC(C)[C@@H]1C(=O)CC2(C)C3C(C=O)=CC[C@@H]2[C@H]31
- MIC [1]: 800 mg/L (≈ 3.44 mM)
- MIC [2]: 800 mg/L (≈ 3.44 mM)

Compound: CC(C)[C@H]1C(=O)C[C@@]2(C)[C@@H]3C(CO)=CC[C@H]2[C@H]13
- MIC [1]: > 800 mg/L
- MIC [2]: > 800 mg/L

Compound: CC(C)[C@H]1C(=O)CC2(C)C3C(C=O)=CC[C@@H]2[C@H]31
- MIC [1]: 800 mg/L (≈ 3.44 mM)
- MIC [2]: 800 mg/L (≈ 3.44 mM)
